Literature values in US4603221A, “Process for preparing substituted tetralones” (Ethyl Corporation, priority 1985, dated 1986).

Conditions: method generally in accordance with Gero et al., J. Org. Chem. 16, 1835-1838 (1951)

Row | pKa Value | SMILES
1 | 6.62 | Cc1cccc(C)n1 [2,6-lutidine]
2 | 6.79 | Cc1ccnc(C)c1 [2,4-lutidine]
